For one data set, the system named is PBMC. As to the kind of experiment: PBMC proliferation, BrdU incorporation. In kind it is cell-based, human. The following applies: for IC50: Homo sapiens, ConA-stimulated PBMC, BrdU uptake, nM ± SD, read-out: IC50 PBMC proliferation inhibition. Here is the method:
Blood samples were taken from healthy donors and loaded on a Ficoll density gradient to purify the PBMC population. T cells were purified by human anti-CD3 using an autoMACS instrument (Miltenyi Biotec, Bergisch-Gladbach, Germany), according to the manufacturer's instructions. The identity of T cells was confirmed by flow cytometry, as they stained positive for CD3. Cells were stimulated with ConA (10 μg/ml), ODN2006 (0.5 μg/ml; Enzo Life Sciences), or LPS (50 μg/ml; Sigma-Aldrich, Steinheim, Germany), for 72 h in the presence of the inhibitor, and their proliferation was measured in the BrdU incorporation assay as will be later described.
(§1) Cells were depleted of fetal calf serum (FCS) for 12 hours. They were then stimulated to proliferate by addition of ConA (10 μg/ml) for PBMC from healthy individuals and for Jurkat cells, FCS (10%) for HEK293 and A375 cells, PDGF (30 ng/ml) for NIH 3T3 cells, and EGF (30 ng/ml) for MDA-MB-231, Cells (1×10^5) were cultured in 96-well plates for 3 days in the presence or absence of inhibitors at the concentrations specified in the text. Each condition was tested in duplicate wells.
(§2) Proliferation was assessed by BrdU incorporation using a colorimetric ELISA kit (Roche, Germany). Subsequent to labeling with 10 μM BrdU, DNA was denatured and the cells were incubated with anti-BrdU-POD, prior to the addition of colorimetric substrate (TMB). The reaction product was quantified by measuring absorbance at 450 nm in an ELISA plate reader (ELx800 BIO-TEK Instruments Inc.).
(§3) Since we were not prejudiced towards any specific protein kinase, we used a biological assay for T cell proliferation. We tested our libraries for inhibition of proliferation of PBMC and Jurkat cells (Table 3). Cell proliferation was measured by BrdU uptake. […] PBMC cells were stimulated by a non-specific T cell mitogen, Concanavalin A (ConA). All of the compounds that were tested inhibited proliferation at micromolar or sub-micromolar concentrations.

A further data set has as its system Jurkat cells. As to the kind of experiment: Jurkat cell proliferation, BrdU incorporation. In kind it is cell-based, human. The following applies: for IC50: Homo sapiens, Jurkat, BrdU uptake, nM ± SD, read-out: IC50 Jurkat cells proliferation inhibition. The method, then: as §1, §2, §3

Where only a bound is given, the exact number is not on record here.

In general, melting point refers to the temperature of the solid-liquid transition. With `COc1cc(-c2nc(NCc3ccc(F)c(F)c3)c3ccccc3n2)cc(OC)c1OC` [Compound 12, N-(3,4-difluorobenzyl)-2-(3,4,5-trimethoxyphenyl)quinazolin-4-amine], the melting point is > 250 °C. For the same compound, the IC50 in the data set on PBMC came to 200 nM. In addition, in the data set on Jurkat cells, the IC50 was found to be 730 ± 0.39 nM.
With `COc1cc(-c2nc(NCc3ccccc3)c3ccccc3n2)cc(OC)c1OC` [Compound 10, N-benzyl-2-(3,4,5-trimethoxyphenyl)quinazolin-4-amine], the melting point was > 250 °C. Also, in the data set on PBMC, the IC50 was 3250 ± 2.47 nM. For the same compound, the IC50 in the data set on Jurkat cells was found to be 600 ± 0.14 nM.
With `COc1cc(-c2nc(Nc3ccccc3)c3ccccc3n2)cc(OC)c1OC` [Compound 1, N-phenyl-2-(3,4,5-trimethoxyphenyl)quinazolin-4-amine], the melting point was > 250 °C. Besides, the IC50 in the data set with PBMC is 280 ± 0.04 nM. Further, in the data set with PBMC (relative to compound 2), the “fold increase in the IC50 of PBMC proliferation compared with compound 2” value is reported as 3 fold. Besides, in the data set on Jurkat cells, the IC50 is 380 ± 0.18 nM. The “fold increase in the IC50 of Jurkat cell proliferation compared with compound 2” value in the data set with Jurkat cells (relative to compound 2) worked out at 10 fold.
`OCc1ccccc1Nc1nc(-c2cc(O)c(O)c(O)c2)nc2ccccc12` [Compound 28, 5-(4-(2-(hydroxymethyl)phenylamino)quinazolin-2-yl)benzene-1,2,3-triol]: the melting point is > 250 °C. In the data set with PBMC, the IC50 was 900 ± 0.14 nM. In addition, in the data set on Jurkat cells, the IC50 was found to be 650 ± 0.21 nM.
The corresponding values for `Nc1ccc(CNc2nc(-c3cc(O)c(O)c(O)c3)nc3ccccc23)cc1` [Compound 30, 5-(4-(4-aminobenzylamino)quinazolin-2-yl)benzene-1,2,3-triol] are > 250 °C, 570 ± 0.24 nM and 670 ± 0.22 nM.
Regarding `Oc1cc(-c2nc(Nc3ccc4c(c3)OCO4)c3ccccc3n2)cc(O)c1O` [Compound 37, 5-(4-(benzo[d][1,3]dioxol-5-ylamino)quinazolin-2-yl)benzene-1,2,3-triol], the melting point was > 250 °C. Besides, the IC50 in the data set with PBMC was found to be 5500 ± 6.36 nM. The IC50 in the data set on Jurkat cells amounted to 800 ± 0.28 nM.
The corresponding values for `COc1cc(-c2nc(Nc3ccc4c(c3)OCO4)c3ccccc3n2)cc(OC)c1OC` [Compound 18, N-(benzo[d][1,3]dioxol-5-yl)-2-(3,4,5-trimethoxyphenyl) quinazolin-4-amine] are > 250 °C, 380 ± 0.04 nM and 600 nM.
Taken in the same sequence, the figures for `Oc1cc(-c2nc(Nc3ccc4[nH]ncc4c3)c3ccccc3n2)cc(O)c1O` [Compound 35, 5-(4-(1H-indazol-5-ylamino)quinazolin-2-yl)benzene-1,2,3-triol] were > 250 °C, 780 ± 0.67 nM and 710 ± 0.87 nM.
In the case of `Oc1cc(-c2nc(NCc3ccc(Cl)c(Cl)c3)c3ccccc3n2)cc(O)c1O` [Compound 32, 5-(4-(3,4-dichlorobenzylamino)quinazolin-2-yl)benzene-1,2,3-triol], the melting point was > 250 °C. The IC50 in the data set on PBMC was 2600 ± 0.24 nM. Besides, in the data set on Jurkat cells, the IC50 was determined as 3640 ± 0.54 nM.
The corresponding values for `COc1cc(-c2nc(Nc3ccc4cn[nH]c4c3)c3ccccc3n2)cc(OC)c1OC` [Compound 15, N-(1H-indazol-6-yl)-2-(3,4,5-trimethoxyphenyl) quinazolin-4-amine] are > 250 °C, 450 ± 0.07 nM and 600 ± 0.14 nM.
The corresponding values for `COc1cc(-c2nc(Nc3ccccc3CO)c3ccccc3n2)cc(OC)c1OC` [Compound 9, (2-(2-(3,4,5-trimethoxyphenyl)quinazolin-4-ylamino)phenyl)methanol] are > 250 °C, 850 ± 0.07 nM and 580 ± 0.18 nM.
The corresponding values for `COc1cc(-c2nc(NCc3ccc(N)cc3)c3ccccc3n2)cc(OC)c1OC` [Compound 11, N-(4-aminobenzyl)-2-(3,4,5-trimethoxyphenyl)quinazolin-4-amine] are > 250 °C, 380 ± 0.04 nM and 480 ± 0.18 nM.
As to `COc1cc(-c2nc(NCCc3c[nH]c4ccccc34)c3ccccc3n2)cc(OC)c1OC` [Compound 17, N-(2-(1H-indol-3-yl)ethyl)-2-(3,4,5-trimethoxyphenyl)quinazolin-4-amine], the melting point was > 250 °C. For the same compound, the IC50 in the data set with PBMC worked out at 750 ± 0.21 nM. Also, the IC50 in the data set with Jurkat cells amounted to 700 ± 0.35 nM.

The values are drawn from patent US8759363B2, “Quinazoline-based T cell proliferation inhibitors” (Yissum Research Development Company of the Hebrew …, priority 2010, dated 2014).
